Entries after “also recorded” stand apart in the source; their conditions may differ.
Key:
Type in all cases: in vivo, mouse
IL-1β mRNA = IL-1β mRNA in muscularis after IM (real time RT-PCR); settings: IM + CO vs IM, 6 hr
Protocol: Pro- and anti-inflammatory gene expression was determined by real time RT-PCR. The small intestinal muscularis externa was collected at 4 time points (3, 6, 12, and 24 hr) postoperatively and snap frozen in liquid nitrogen. Total RNA extraction was performed using the guanidium-thiocyanate phenol-chloroform extraction method as described in Eskandari et al. (Id.) RNA pellets were resuspended in RNA-secure resuspension solution (Ambion Inc., Austin, Tex.), followed by removal of potential contaminating DNA by treatment with DNase I (DNA-Free Kit, Ambion Inc., Austin, Tex.). Equal aliquots (5 μg) of total RNA from each sample were quantified by spectrophotometry (wavelength […]). Peak mRNA expression was quantified in duplicate by SYBR Green two-step, real-time RT-PCR. β-actin was used as the endogenous reference. […] Real-time PCR data were plotted as the ΔRn fluorescence signal versus the cycle number. […] Quantification of mRNA expression was normalized to β-actin and calculated relative to control using the comparative CT method.
To exclude PCR amplification of contaminating genomic DNA, RT-negative controls (samples containing RNA which was not reverse transcribed) were included in each PCR reaction. […] PCR amplification efficiency of each target cDNA was measured by determining the colinearity of serial dilutions. […]

[1] = general observations after intestinal manipulation and CO exposure; settings: mice, CO 250 ppm, 1 hour before and 24 hours after laparotomy
Excerpt: Surgical Manipulation. Mice were anesthetized with inhaled isoflurane and the abdomen opened by midline laparotomy. The small intestine was eventrated and gently compressed along its entire length using moistened sterile cotton applicators. This procedure is designed to simulate “running” of the bowel commonly performed during abdominal surgery in the clinical setting. The bowel was repositioned in the abdominal cavity and the incision closed by two layers of continuous sutures. The duration of the procedure was approximately 15 minutes and the animals moved freely about their cage within 20 minutes of withdrawal of anesthetic.
CO Inhalation Treatment. Mice housed in cages were placed in plexiglass chambers that were continuously ventilated with air or with air containing CO (250 ppm). A sampling port was provided to continuously monitor carbon monoxide concentrations within the chamber. Animals had free access to food and water at all times. Mice were exposed to CO or air 1 hour prior to laparotomy, removed for surgical manipulation, and then returned to the chamber for 24 hours. Mice not undergoing surgery were removed from the chamber for a similar length of time and then returned to the chamber for 24 hours.

PGE2 = PGE2 release from muscularis extracts (marker of COX-2 activity); settings: 24 hr
Protocol: Protein and Nitric Oxide Determinations. The small bowel of control and mice subjected to intestinal manipulation was removed under sterile conditions, 4 or 24 hours post-operatively, leaving the colon in situ. The small intestine was transferred to a beaker containing chilled Hanks balanced salt solution (Sigma, St. Louis, Mo.) with 200 U/ml penicillin G and 200 μg/ml streptomycin (HBSS), the lumen flushed, and the tissue transferred to a second beaker of HBSS. The muscularis was harvested as described above for real time RT-PCR. Tissues were maintained under sterile conditions at 3 to 5° C. throughout the harvesting procedure. Isolated muscularis was blotted onto sterile gauze, and the wet weight determined to obtain aliquots of 40 to 60 mg. […]
After the incubation period, the muscle tissue was pelleted, and aliquots of culture medium were frozen in liquid nitrogen and stored at −80° C. The levels of IL-6, IL-1β, PGE2, and IL-10 proteins secreted into the culture medium were determined using commercially available ELISA kits (R&D Systems, Minneapolis, Minn.) according to the manufacturer's instructions. […] Nitrate/nitrate levels were measured 24 hrs postoperatively using commercially available test kit (Oxford Biomedical Research, Oxford, Mich.) and quantified according to the manufacturer's directions. […]

[C-]#[O+] [CO, carbon monoxide]
peak IL-1β mRNA expression (IL-1β mRNA): significantly inhibited | mortality or morbidity associated with the CO exposure regime [1]: No mortality or morbidity | IM-induced PGE2 release (PGE2; IM + CO): no effect | PGE2 release (PGE2; control muscularis, inhalation of CO alone): significant increases; also recorded: significantly increased
